Here are results for 82 molecules from ChEMBL document CHEMBL4513101, “Naegleria gruberi Pathogen Box compounds screening” (2021).

Calls of active or inactive are those of the source. Rule as the data show it: active = inhibition of 80% or more and inactive = less.

The assay relates to Naegleria gruberi. Put plainly: microbe, parasite or virus in culture. Conditions: NEG-M, CONC 10 uM. Format: functional.
Description: Growth inhibiting activity of Naegleria gruberi in vitro
As a reminder, the inhibition is the change of the read-out against control, counted positive when it falls. As for `Clc1ccc(-n2cc(COc3ccnc4ccccc34)nn2)cc1`, the inhibition at 10 µM is reported as 75.2% (not active).

Turning to `CC(C)=CCC/C(C)=C\CNCCNC1C2CC3CC(C2)CC1C3` (configuration not stated), the inhibition at 10 µM is recorded as 20.2% (not active).

In the case of `NCCN(C(=O)c1ccc(Cl)cc1Cl)c1ccc(OCc2ccc(Cl)cc2)cc1`, the inhibition at 10 µM was 29.6% (not active).

In the case of `Cc1cnc(N2CCN[C@@H](Cc3ccccc3)C2)nc1Oc1ccc(-n2ccnc2)cc1`, the inhibition at 10 µM is 9.8% (not active).

For `Nc1nccc2ccc(-c3ccc4nccn4c3)cc12`, the inhibition at 10 µM is on record as 8.2% (not active).

Regarding `COc1ccc(-c2nn(C(C)C)c3ncnc(N)c23)cc1OC`, the inhibition at 10 µM is listed as 49.5% (not active).

`Cc1cc(C(=O)Nc2ccc(-c3ccccc3)cc2)no1`: the inhibition at 10 µM is reported as 35.7% (not active).

For the molecule `c1ccc(Oc2ccc(-c3cncc(-c4ccc5[nH]ccc5c4)n3)cc2)cc1`, the inhibition at 10 µM is 11.4% (not active).

Take `COc1cccc(OCC(=O)c2ccc(Br)cc2)c1`: the inhibition at 10 µM is on record as 33.4% (not active).

Regarding `CCCCc1ccc(C(=O)Nc2nccc3ccccc23)nc1`, the inhibition at 10 µM is on record as 43.2% (not active).

As for `CCOc1ccccc1C(=O)Nc1cccc(-c2nc3ncccn3c2C)c1`, the inhibition at 10 µM is 34.5% (not active).

Regarding `OCc1ccc(-c2cncc(Nc3cccc(Cl)c3)c2)cc1`, the inhibition at 10 µM is listed as 18.8% (not active).

`COc1ccc(CCN2CCC(NCc3cccc(N(C)C)c3)CC2)cc1`: the inhibition at 10 µM is on record as 8.7% (not active).

For the molecule `CC(=O)NC[C@H]1CN(c2ccc(N3CCSCC3)c(F)c2)C(=O)O1` [SUTEZOLID], the inhibition at 10 µM is recorded as 45.7% (not active).

Take `Cc1nn(C)cc1C(C)Nc1nncc(-c2ccc(C(F)(F)F)cc2)n1` (configuration not stated): the inhibition at 10 µM is 0% (not active).

As for `O=C(NC1CC1)c1ccc(CSCc2ccccc2Cl)o1`, the inhibition at 10 µM is 5.6% (not active).

For `O=C1Nc2ccc(Br)cc2C12NCCc1c2[nH]c2ccccc12` (configuration not stated), the inhibition at 10 µM is reported as 33.5% (not active).

On to `CC(C)(C)n1nc(-c2ccccc2)c2c(N)ncnc21`, for which the inhibition at 10 µM is listed as 55.1% (not active).

Take `CCN(CC)S(=O)(=O)c1ccc(Cl)c(C(=O)Nc2ccc3nc(C)sc3c2)c1`: the inhibition at 10 µM was 84.7% (active).

Consider `CS(=O)(=O)Cc1nc2ccccc2oc1=O`, for which the inhibition at 10 µM is reported as 38.8% (not active).

Turning to `Cc1c[nH]c(CCNC(=O)c2cc(-c3ccc(Cl)cc3)cs2)n1`, the inhibition at 10 µM was 38.3% (not active).

On to `Cc1ccc2[nH]c3c(NCCN(C)C)ncnc3c2c1`, for which the inhibition at 10 µM is listed as 23.7% (not active).

On to `N#Cc1nc(-c2ccccc2)oc1S(=O)(=O)c1ccc(Cl)cc1`, for which the inhibition at 10 µM is given as 9.4% (not active).

Consider `CCCn1c(NC(=O)c2ccc3ccccc3n2)nc2ccccc21`, for which the inhibition at 10 µM is 22.6% (not active).

With `CC1(C)OB(O)c2ccc(C3=NOC(c4cc(Cl)c(F)c(Cl)c4)(C(F)(F)F)C3)cc21` (configuration not stated), the inhibition at 10 µM is 62.5% (not active).

In the case of `CC(C)(C)c1cnc(NC(=O)c2ccccc2O)s1`, the inhibition at 10 µM is given as 0% (not active).

As for `Cc1ccccc1CN1CCC(O)(c2ccc(Cl)c(C(F)(F)F)c2)CC1`, the inhibition at 10 µM is recorded as 47.4% (not active).

`Cc1ccc(S(=O)(=O)N2CCN(C(=O)c3cc(-c4ccccc4)n[nH]3)CC2)cc1`: the inhibition at 10 µM was 22.3% (not active).

As to `CNC(=O)C1Cc2c([nH]c3cc(Cl)ccc23)C2(CCN(CCc3ccccc3)CC2)N1` (configuration not stated), the inhibition at 10 µM is recorded as 11.5% (not active).

Turning to `O=C(Nc1ccccc1-c1nc2c(C(=O)O)cccc2o1)c1ccccc1`, the inhibition at 10 µM is recorded as 39.5% (not active).

Regarding `CCC(Sc1nc2ccccc2o1)C(=O)Nc1nnc(C)s1` (configuration not stated), the inhibition at 10 µM was 8.4% (not active).

Regarding `CCCn1c(CNc2ccccc2O)nc2ccccc21`, the inhibition at 10 µM is given as 39.9% (not active).

Consider `O=[N+]([O-])c1cn2c(n1)OC[C@@H](OCc1ccc(OC(F)(F)F)cc1)C2` [PRETOMANID], for which the inhibition at 10 µM is given as 16.1% (not active).

Turning to `CC1=Nc2ccc(Cl)cc2C(O)(c2ccc(C)cc2)N1CCN1CCCCC1` (configuration not stated), the inhibition at 10 µM was 31.1% (not active).

For the molecule `COc1ccc(-c2onc(C(F)(F)F)c2-c2ccc(Cl)cc2)c(O)c1`, the inhibition at 10 µM is reported as 45.5% (not active).

On to `CN(C(=O)c1cc2c(-c3cncnc3)cccc2[nH]1)c1ccccc1`, for which the inhibition at 10 µM is 27.7% (not active).

Consider `COc1ccc2nccc(NC(=O)C3CCN(CCc4ccc(Cl)cc4)CC3)c2n1`, for which the inhibition at 10 µM is 18.8% (not active).

As to `CCOc1ccc(-c2nc(NC(=O)CS(=O)(=O)c3ccccc3)sc2C)cc1`, the inhibition at 10 µM is listed as 50.9% (not active).

As for `CCC(Sc1nc2ccccc2o1)C(=O)Nc1nccs1` (configuration not stated), the inhibition at 10 µM is 44.3% (not active).

Take `Cc1ccc2nc(Cl)c(CNCc3cccs3)cc2c1`: the inhibition at 10 µM is given as 35.5% (not active).

For `COC(=O)c1cccc2oc(-c3cccc(OC)c3NC(=O)c3cc(-c4ccccc4)on3)nc12`, the inhibition at 10 µM is 69.8% (not active).

Turning to `CO[C@@H](C(=O)N1Cc2[nH]nc(NC(=O)c3ccc(N4CCN(C)CC4)cc3)c2C1)c1ccccc1` [DANUSERTIB], the inhibition at 10 µM is listed as 41.3% (not active).

As to `Cc1cc(NCCc2ccccc2)nc(NC(=N)Nc2ccc(Cl)cc2)n1`, the inhibition at 10 µM was 19.6% (not active).

Take `COc1ccc(-c2cncc3ccc(C(=O)NCCCn4ccnc4)nc23)cc1`: the inhibition at 10 µM was 5.8% (not active).

As to `COc1cc(-c2cc(-c3ccc(S(C)(=O)=O)cc3)cnc2N)ccc1O`, the inhibition at 10 µM was 67.8% (not active).

Take `O=C(Nc1cnc2ccccc2c1)c1cccc(-n2cnnn2)c1`: the inhibition at 10 µM is given as 9.8% (not active).

Turning to `O=C(NCc1ccco1)N1CCN(Cc2ccc(Cl)s2)CC1`, the inhibition at 10 µM is on record as 39.6% (not active).

Regarding `CC(Oc1cccc(Cl)c1)C(=O)Nc1ccc2oc(-c3ccncc3)nc2c1` (configuration not stated), the inhibition at 10 µM is listed as 35.9% (not active).

As to `CCc1ccc(S(=O)(=O)Nc2cc(CN3CCN(CCC(C)C)CC3)ccc2C)cc1`, the inhibition at 10 µM is on record as 48.7% (not active).

Take `COc1cc(NC(=O)Cc2nn(C)c(=O)c3ccccc23)ccc1Cl`: the inhibition at 10 µM was 90.7% (active).

In the case of `COc1ccc(-c2nc(-c3cccc(NC(=O)Cc4ccc(F)cc4)c3)no2)cc1OC`, the inhibition at 10 µM is recorded as 35.4% (not active).

As to `NS(=O)(=O)c1cncc(-c2ccc3nccc(-c4cn[nH]c4)c3n2)c1`, the inhibition at 10 µM is recorded as 0% (not active).

For `Cc1cccc(C(=O)Nc2ccnc(N(C)C3CCN(CC(C)C)CC3)c2)c1`, the inhibition at 10 µM was 35.1% (not active).

Consider `Cc1cc(NCC(C)C)c2[nH]nc(-c3ccccc3)c2n1`, for which the inhibition at 10 µM is 25.8% (not active).

As to `CC(C)(C)CN1C(=O)C(c2ccccc2)(c2ccccc2)N=C1N`, the inhibition at 10 µM is given as 19.2% (not active).

As for `Cc1nn2c(=O)c3c([nH]c2c1-c1ccc(Cl)cc1)CCCC3`, the inhibition at 10 µM was 30.5% (not active).

For `CN1CCCC1CCO[C@](C)(c1ccccc1)c1ccc(Cl)cc1` (some centres not stated), the inhibition at 10 µM is reported as 64.4% (not active).

Consider `CNc1cc(C)nc(C2CN(C(=O)c3n[nH]c4ccccc34)CCO2)c1` (configuration not stated), for which the inhibition at 10 µM was 24.2% (not active).

With `Cc1cc(OCC(=O)Nc2ccc(C(C)C)cc2)n(C)c(=O)c1C#N`, the inhibition at 10 µM is on record as 18.6% (not active).

In the case of `CNC(=O)CNc1nc(-c2ccccn2)nc2scc(-c3ccccc3)c12`, the inhibition at 10 µM is 22.6% (not active).

On to `CC(=O)NCC1CN(c2ccc(-c3ccc(CO)cc3)c(F)c2)C(=O)O1` (configuration not stated), for which the inhibition at 10 µM is given as 35.1% (not active).

With `Cc1nnc(NC(=O)c2cn(-c3ccccc3)nc2-c2ccccc2C)o1`, the inhibition at 10 µM is reported as 34.7% (not active).

Regarding `Oc1c(I)cc(I)c2cccnc12` [IODOQUINOL], the inhibition at 10 µM is 51.6% (not active).

As for `O=C(CN1CCOCC1)Nc1ccc2ncnc(Nc3ccc(OCc4cccc(F)c4)c(Cl)c3)c2c1`, the inhibition at 10 µM was 17% (not active).

As to `CCOC(=O)c1cc(-c2csc(Nc3c(C)cc(C)cc3C)n2)on1`, the inhibition at 10 µM is reported as 33.4% (not active).

Turning to `CC(C(=O)Nc1ccc2oc(-c3ccncc3)nc2c1)c1ccccc1` (configuration not stated), the inhibition at 10 µM is listed as 48.6% (not active).

Regarding `CCOC(=O)c1c(NC(=O)c2c(F)c(F)c(F)c(F)c2F)sc(C(N)=O)c1C`, the inhibition at 10 µM is reported as 5.8% (not active).

In the case of `c1ccc(-c2cc(N3CCCCC3)c3ccccc3n2)nc1`, the inhibition at 10 µM is recorded as 20.7% (not active).

On to `CCCCN(CCCC)c1c(C#N)cc(S(=O)(=O)Nc2ccccc2)cc1C#N`, for which the inhibition at 10 µM was 23.9% (not active).

On to `CNC(=O)c1cc(S(=O)(=O)N2CCN(c3ccccn3)CC2)cs1`, for which the inhibition at 10 µM is reported as 32.9% (not active).

Consider `c1ccc(Oc2ccc(-c3cc(C4CCOCC4)[nH]n3)cc2)cc1`, for which the inhibition at 10 µM is 34.2% (not active).

`Cc1cc2ccccc2n1CC(=O)N1CC(C(=O)N2CCCCC2)Oc2ccccc21` (configuration not stated): the inhibition at 10 µM is 52.5% (not active).

As for `CCc1c(C)nc(-n2nc(C)cc2NC(=O)c2ccccc2SC)[nH]c1=O`, the inhibition at 10 µM is on record as 17.4% (not active).

Take `Cc1ncc(-c2ccnc(Nc3ccc(S(C)(=O)=O)cc3)n2)n1C(C)C` [AZD-5438]: the inhibition at 10 µM is reported as 47.7% (not active).

Regarding `CS(=O)(=O)c1ccc(C(=O)N(CC2CCCO2)c2nc3ccccc3s2)cc1[N+](=O)[O-]` (configuration not stated), the inhibition at 10 µM is recorded as 58.7% (not active).

As for `N=C(N)Nc1ccc(-c2ccc(-c3ccc(N=C(N)N)c(Cl)c3)o2)cc1Cl`, the inhibition at 10 µM is recorded as 22.3% (not active).

`O=C(NC1=NCCS1)c1sc2cc(F)ccc2c1Cl`: the inhibition at 10 µM is 34.6% (not active).

Consider `Nc1ncnc2c1c(-c1cnc3ccccc3c1)nn2CC1CCNCC1`, for which the inhibition at 10 µM is given as 4.9% (not active).

For the molecule `FC(F)(F)c1ccc(N(c2cccnc2)C2CCN(c3ccc(C(F)(F)F)cn3)CC2)cc1`, the inhibition at 10 µM was 80.4% (active).

With `O=C(Nc1cccnc1)c1c(O)c2cccc3c2n(c1=O)CC3`, the inhibition at 10 µM is reported as 40.3% (not active).

Consider `COc1ccc2nc(C)cc(OCC(=O)NCc3ccccc3)c2c1`, for which the inhibition at 10 µM was 41.1% (not active).

With `O=C1N(Cc2cc3ccccc3s2)CC2CN(Cc3ccccc3)CCN12` (configuration not stated), the inhibition at 10 µM was 34.3% (not active).
